From US20060020027A1, “Use of curcumanoids as histone acetyltransferases (HATs) inhibitors” (priority 2004, published 2006)

Columns and labels:
[1] = system: p300 HAT activity dependent chromatin transcription; assay: In vitro transcription from chromatin template; assay type: biochemical
Method: In Vitro Chromatin Assembly: Chromatin template for in vitro transcription experiments was assembled and characterized as described earlier (9).
(§1) In vitro Transcription Assay: Transcription assays were carried out as described elsewhere (9) with the necessary modifications. The reconstituted chromatin template (containing 30 ng DNA) or an equimolar amount of histone—free DNA was incubated with 50 ng of activator (Gal4-VP16) in a buffer containing 4 mM HEPES (pH 7.8), 20 mM KCl, 2 mM DTT, 0.2 mM PMSF, 10 mM sodium butyrate, 0.1 mg/ml bovine serum albumin, 2% glycerol. […] HeLa nuclear extract (5 μl, which contains 8 mg/ml protein) was added then to initiate the preinitiation complex formation. Transcription reaction was started by the addition of NTP-mix and α-[^32P] UTP after the preinitiation complex formation and incubated further for 40 min at 30° C. […] Transcripts were analysed by 5% Urea-PAGE and quantification of transcription was done by phosphoimager (Fuji) analysis. […]
(§2) (A), Schematic representation of the in vitro transcription protocol. […] The in vitro transcription reaction mixtures were analyzed on 5% urea-acrylamide gel and further processed by autoradiography.

[2] = system: acetylation of p53 in 293 T cells; assay: p53 acetylation in transfected cells (immunoprecipitation, western blotting); assay type: cell-based; conditions: 24 hours
Method: 293 T cells were transfected with CMV-p53 and CMV-p300 using Lipofectamine 2000 reagent (Invitrogen) according to the manufacturer's instructions. […] The cells were harvested using RIPA buffer (150 mM NaCl, 50 mM Tris pH 7.4, 1% NP40, 0.1% Sodium deoxycholate, 1 mM EDTA, 0.5 μg/ml leupeptin, 0.5 μg/ml aprotinin and 0.5 μg/ml pepstatin) and the p53 protein was immunoprecipitated from the lysates using mouse monoclonal anti-p53 antibody, DO1 (oncogene). The immunocomplexes were bound on protein G-sepharose beads (Amersham Pharmacia) for 12 hours at 4° C., washed 3 times with RIPA buffer and subjected to SDS-PAGE on a 10% gel followed by western blotting using mouse monoclonal anti-p53 antibody, pAb421 or mouse monoclonal anti-acetylated lysine antibody.
(B) HeLa cells were treated as indicated, for 24 hours, histones were extracted and separated on an 18% acid/urea/triton (AUT) PAGE. The protein bands were visualized by Coomassie brilliant blue staining. […] Asterisk (*) indicates hyperacetylation of histones in response to HDAC inhibition by TSA and sodium butyrate. […] (C). The acid-extracted histones were resolved over 12% SDS-PAGE and were analyzed by western blot using antibodies against acetylated histone H3 and H4. […] The p53 protein was immunoprecipitated from the cell lysates using p53 monoclonal antibody and acetylation status was analyzed by western blotting. […]

SupT1 cells = assay: Trypan blue exclusion analysis of viable cells; assay type: cell-based; conditions: 100 μM curcumin, 48 hrs
From the text: Various experimental formats have been used to evaluate infection of target cells by HIV or inhibition of the viral infection in the presence of an anti-viral compound (44, 45). The standard format is to add titered viral stock to the target cells at a known multiplicity of infection (MOI) in the presence or absence of an anti-viral compound and monitor the synthesis of the viral structural protein p24 or the enzyme reverse transcriptase (46, 47). In the natural context, the viral transfer is more efficient through cell-to-cell contact rather than free virus infecting a target cell. Prevention of the viral transfer between cells is technically more difficult than neutralizing the free virus. SupT1 cells are highly […] for HIV-1 and these cells make numerous and large syncytia when infected with the virus. Taking advantage of this property, we co-cultured SupT1 cells in the presence of H9/HTLV-IIIb NIH 1983 cells that produce a T-cell tropic virus. […] To rule out the possibility of cytotoxicity and cell death, we determined the number of viable cells in all the wells using a trypan blue exclusion analysis.

HeLa cells = assay: Apoptosis assay (Hoechst staining, nuclear fragmentation); assay type: cell-based; conditions: 24 hours exposure to 75-100 μM
Method: Apoptosis assay: Curcumin-induced apoptosis was monitored by the extent of nuclear fragmentation. Nuclear fragmentation was visualized by Hoechst staining of apoptotic nuclei. The apoptotic cells were collected by centrifugation, washed with PBS and fixed in 4% paraformaldehyde for 20 minutes at room tempertature. Subsequently the cells were washed and resuspended in 20 μl PBS before depositing it on poly lysine-coated coverslips and were left to adhere on cover slips for 30 min at room temperature after which the cover slips were washed twice with PBS. The adhered cells were then incubated with 0.1% Triton X-100 for 5 min at room temperature and rinsed with PBS for three times. The coverslips were treated with Hoechst 33258 for 30 minutes at 37° C., rinsed with PBS and mounted them on slides with glycerol-PBS and processed as described previously (29).
Arrows indicate apoptotic nuclear fragmentation

[3] = system: histone methyltransferase enzymes of HeLa nuclear extract; assay: Histone methyltransferase assay with HeLa nuclear extract; assay type: biochemical; conditions: 50 and 100 μM curcumin
Method: (§3) Histone methyltransferase and deacetylase Assays: Histone methyltransferase assays were performed in a 30 μl reaction. […] After the initial incubation, 1 μl of 8.3 Ci/mmol ^3H—S— Adenosyl Methionine was added to the reaction mixtures and the incubation continued for 1 hour (in the case of nuclear extract) or for 15 minutes (in the case of G9a). The reaction products were TCA precipitated, resolved on 15% SDS-PAGE and subjected to fluorography followed by autoradiography.
(§4) The reaction products were TCA precipitated, resolved on 15% SDS-PAGE and subjected to fluorography followed by autoradiography.

[4] = target: T1, lysine methyltransferase G9a (Homo sapiens, UniProt Q96KQ7); assay: Histone methyltransferase assay with G9a; assay type: biochemical; conditions: 50 and 100 μM curcumin
T1 construct: bacterially expressed HMTase domain of G9a fused to GST (31); GST; made in house
T1 sequence (Q96KQ7 830-1209 limits assumed): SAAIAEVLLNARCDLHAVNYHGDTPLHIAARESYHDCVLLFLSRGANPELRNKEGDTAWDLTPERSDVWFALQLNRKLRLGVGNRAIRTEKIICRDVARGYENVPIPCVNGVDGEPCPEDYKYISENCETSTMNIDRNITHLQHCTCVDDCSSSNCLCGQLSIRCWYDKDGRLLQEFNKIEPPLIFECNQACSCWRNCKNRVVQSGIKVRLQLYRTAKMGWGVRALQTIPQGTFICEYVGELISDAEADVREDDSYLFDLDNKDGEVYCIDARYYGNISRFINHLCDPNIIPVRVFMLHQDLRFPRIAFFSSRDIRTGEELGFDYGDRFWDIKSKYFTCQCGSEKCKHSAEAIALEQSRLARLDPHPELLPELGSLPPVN
Method: as §3, §4

p300 = p300 (Homo sapiens, UniProt Q09472); assay: Histone acetyltransferase (HAT) assay, filter binding and gel, with p300; assay type: biochemical; conditions: varying acetyl CoA or histone concentration; 25 and 30 μM curcumin
p300, sequence (Q09472 whole entry, species assumed): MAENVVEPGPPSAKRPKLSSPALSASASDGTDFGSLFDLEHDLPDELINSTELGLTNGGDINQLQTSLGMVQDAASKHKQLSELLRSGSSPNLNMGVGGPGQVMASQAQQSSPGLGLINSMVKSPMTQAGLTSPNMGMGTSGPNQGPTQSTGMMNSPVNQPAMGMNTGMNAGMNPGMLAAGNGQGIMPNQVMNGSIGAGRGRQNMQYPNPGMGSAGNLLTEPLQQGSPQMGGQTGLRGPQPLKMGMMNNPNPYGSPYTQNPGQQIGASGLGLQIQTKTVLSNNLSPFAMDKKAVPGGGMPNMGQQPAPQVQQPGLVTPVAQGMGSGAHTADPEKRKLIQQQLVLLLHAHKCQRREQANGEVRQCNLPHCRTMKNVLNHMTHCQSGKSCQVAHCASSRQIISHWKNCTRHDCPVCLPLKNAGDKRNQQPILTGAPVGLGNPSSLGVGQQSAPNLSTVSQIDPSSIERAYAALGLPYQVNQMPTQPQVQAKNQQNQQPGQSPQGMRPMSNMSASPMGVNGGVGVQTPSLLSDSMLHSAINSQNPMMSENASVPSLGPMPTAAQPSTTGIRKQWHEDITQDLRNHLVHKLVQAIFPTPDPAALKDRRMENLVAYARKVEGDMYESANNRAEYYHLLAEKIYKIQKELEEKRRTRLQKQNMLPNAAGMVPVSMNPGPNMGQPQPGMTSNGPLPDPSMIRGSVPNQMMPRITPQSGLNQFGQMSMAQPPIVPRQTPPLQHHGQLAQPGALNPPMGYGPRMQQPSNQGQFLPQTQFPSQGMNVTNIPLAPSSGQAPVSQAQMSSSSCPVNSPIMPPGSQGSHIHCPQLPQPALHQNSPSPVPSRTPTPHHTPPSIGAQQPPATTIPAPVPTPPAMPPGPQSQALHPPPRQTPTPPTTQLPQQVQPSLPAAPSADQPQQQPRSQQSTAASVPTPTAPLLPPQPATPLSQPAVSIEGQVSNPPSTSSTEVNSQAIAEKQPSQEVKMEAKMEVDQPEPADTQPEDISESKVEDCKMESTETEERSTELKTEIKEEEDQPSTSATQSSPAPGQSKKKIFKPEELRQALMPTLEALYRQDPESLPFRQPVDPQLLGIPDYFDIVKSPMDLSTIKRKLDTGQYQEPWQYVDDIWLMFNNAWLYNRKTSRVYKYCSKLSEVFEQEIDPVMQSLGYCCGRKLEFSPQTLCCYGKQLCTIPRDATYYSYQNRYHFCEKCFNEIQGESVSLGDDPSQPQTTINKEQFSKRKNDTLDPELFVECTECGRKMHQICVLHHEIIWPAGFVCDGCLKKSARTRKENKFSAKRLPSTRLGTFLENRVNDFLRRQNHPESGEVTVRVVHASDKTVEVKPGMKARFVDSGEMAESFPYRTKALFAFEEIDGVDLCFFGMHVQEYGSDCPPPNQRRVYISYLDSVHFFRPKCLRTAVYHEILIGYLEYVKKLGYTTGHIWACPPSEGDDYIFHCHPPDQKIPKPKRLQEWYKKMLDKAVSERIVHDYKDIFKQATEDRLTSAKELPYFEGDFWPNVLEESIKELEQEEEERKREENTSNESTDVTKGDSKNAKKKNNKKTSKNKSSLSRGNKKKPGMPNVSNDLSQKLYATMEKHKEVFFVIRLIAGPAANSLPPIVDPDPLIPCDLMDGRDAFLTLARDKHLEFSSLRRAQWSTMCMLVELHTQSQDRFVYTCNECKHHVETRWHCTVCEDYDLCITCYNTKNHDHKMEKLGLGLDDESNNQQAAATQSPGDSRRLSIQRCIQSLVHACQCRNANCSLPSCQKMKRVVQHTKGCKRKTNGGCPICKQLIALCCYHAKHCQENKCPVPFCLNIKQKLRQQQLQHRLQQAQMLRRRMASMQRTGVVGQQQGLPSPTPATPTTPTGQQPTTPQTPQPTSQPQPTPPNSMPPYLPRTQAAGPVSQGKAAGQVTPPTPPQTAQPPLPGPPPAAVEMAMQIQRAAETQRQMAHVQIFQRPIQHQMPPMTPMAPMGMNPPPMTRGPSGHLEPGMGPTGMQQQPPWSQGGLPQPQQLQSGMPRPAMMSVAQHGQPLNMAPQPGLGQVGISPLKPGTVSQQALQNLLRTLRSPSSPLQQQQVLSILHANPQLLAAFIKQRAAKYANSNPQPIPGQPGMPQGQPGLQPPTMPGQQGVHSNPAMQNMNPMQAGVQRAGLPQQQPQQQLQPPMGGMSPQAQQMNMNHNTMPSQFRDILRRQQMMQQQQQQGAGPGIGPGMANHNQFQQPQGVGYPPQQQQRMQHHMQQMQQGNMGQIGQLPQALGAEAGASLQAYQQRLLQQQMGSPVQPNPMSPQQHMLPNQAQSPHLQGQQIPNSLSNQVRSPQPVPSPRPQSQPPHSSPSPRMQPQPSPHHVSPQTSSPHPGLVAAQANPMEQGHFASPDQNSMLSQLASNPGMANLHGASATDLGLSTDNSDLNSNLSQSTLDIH
From the text: The results were plotted using the Graph Pad Prism software.

CBP = CBP (Homo sapiens, UniProt Q92793); assay: Histone acetyltransferase (HAT) assay with CBP; assay type: biochemical; conditions: core histones
Method: (§5) Histone acetyltransferase Assay: HAT assays were performed as described previously (30). […] The reaction mixture was then blotted onto P-81 (Whatman) filter paper and radioactive counts were recorded on a Wallac 1409 liquid scintillation counter. The radiolabeled acetylated histones were visualized by resolving on 15% SDS-polyacrylamide gel and subjected to fluorography followed by autoradiography.

[5] = target: T2, p300 (substrate HIV-Tat protein) (Homo sapiens, UniProt Q09472); assay: Acetylation of Tat protein by p300 (HAT assay); assay type: biochemical; conditions: […] and 50 μM curcumin
T2 construct: made in house
T2 sequence (Q09472 whole entry, species assumed): as above
Method: as §5
(B), the percentage of acetylation was calculated in each of the cases by accounting for the corrections of acetylation in the case of Tat alone.

[6] = system: transcription from DNA template; assay: In vitro transcription from DNA template; assay type: biochemical; conditions: even at 300 μM
Method: as §1, with “C. For loading control separate reaction was setup with ˜25 ng of supercoiled ML200 DNA, and the transcription assay was carried out as described above, without the addition of the activator (Gal4-VP16) and 2 μl of this reaction was added to each of the transcription reactions.” for “C.”
as §2

[7] = system: HIV-1 (H9/HTLV-IIIb NIH 1983 cells cocultured with SupT1 cells); assay: Syncytium inhibition assay; assay type: cell-based; conditions: 12 h
Method: Syncytium inhibition assay: The cell lines SupT1 and H9/HTLV-IIIb NIH 1983 were obtained from The AIDS Research and Reference Reagent Program. H9/HTLV-IIIb NIH 1983 cells carrying a stably integrated provirus were cocultured with excess numbers of SupT1 cells at a ration of 1:200 or 1:400. A total of […] were seeded per well in a 24-well plate and cultured in RPMI medium supplemented with 10% fetal calf serum and antibiotics. […] All the wells received the same amount of DMSO including the control wells. Formation of syncytia was visible under light microscope within 12 hrs. The total number of syncytia in 10 representative wells was counted at different time points (12, 24 and 48 h) and data for 12 h time point are presented. Identical results were obtained at other time points. All the assays were performed in triplicate wells and the experiment was performed two times.
(A), H9/HTLV-IIIb NIH 1983 carrying stable integrated virus were cocultured with excess numbers of SupT1 cells at 1:200 or 1:400 ratio. A total of 0.1×10^6 cells were seeded per well. […] Formation of syncytia is visible under light microscope within 12 hrs. The total number of syncytia in 10 representative wells was counted and presented. The data are representative of 2 independent experiments.

[8] = system: acetylation of histones in HeLa cells; assay: In vivo histone acetylation in cells (AUT gel and western blotting); assay type: cell-based
Method: Acid/Urea/Triton (A UT) polyacrylamide gel electrophoresis and Western Blotting for in vivo acetylated histones: HeLa cells (3×10^6 cells per 90 mm dish) were seeded overnight and histones were extracted from 24 hours of compound treated cells as reported earlier (29,32). Briefly, cells were harvested, washed in ice-cold buffer A (150 mM KCl, 20 mM HEPES, pH 7.9, 0.1 mM EDTA and 2.5 mM MgCl2) and lysed in buffer A containing 250 mM sucrose and 1% (v/v) Triton X 100. Nuclei were recovered by centrifugation, washed, and proteins were extracted for 1 h using 0.25 M HCl. The proteins were precipitated with 25% (w/v) trichloroacetic acid (TCA) and sequentially washed with ice-cold acidified acetone (20 μl of 12N HCl in 100 ml acetone), and acetone, air-dried and dissolved in the sample buffer (5.8 M urea, 0.9 M glacial acetic acid, 16% glycerol, and 4.8% 2-mercaptoethanol). The histones (equal amounts in all lanes) were resolved on AUT gel as described elsewhere (33,34).
For western blotting, the quantitated protein samples were run on a 12% SDS-polyacrylamide gel and following electrophoresis, proteins on the gel were electrotransferred onto an immobilon membrane (PVDF; Millipore Corp., Bedford, Mass.). The membranes were then blocked in 5% skim milk powder solution in 1×PBS containing 0.05% Tween 20 and then immunoblotted with anti-acetyl H3 (Calbiochem), anti-acetyl H4 (a kind gift from Dr. Alaine Verrault) and anti-H3 respectively. Detection was performed using goat anti-rabbit secondary antibody (Bangalore Genei) and bands were visualized by ECL detection system (Pierce).
(B) HeLa cells were treated as indicated, for 24 hours, histones were extracted and separated on an 18% acid/urea/triton (AUT) PAGE. The protein bands were visualized by Coomassie brilliant blue staining. […] Asterisk (*) indicates hyperacetylation of histones in response to HDAC inhibition by TSA and sodium butyrate. […] (C). The acid-extracted histones were resolved over 12% SDS-PAGE and were analyzed by western blot using antibodies against acetylated histone H3 and H4. Loading and transfer of equal amounts of protein were confirmed by immunodetection of histone H3. (D) 293 T cells were transiently transfected with CMV-p53 and CMV-p300 either alone or in combination as indicated. […] The p53 protein was immunoprecipitated from the cell lysates using p53 monoclonal antibody and acetylation status was analyzed by western blotting. Lanes 1 and 4, transfection with p53 alone; lanes 2 and 5, co-transfection with p53 and p300; lanes 3 and 6, transfection with p300 alone. (IP:Immunoprecipitation and IB: Immunoblotting).

PCAF = PCAF (Homo sapiens, UniProt Q92831); assay: Histone acetyltransferase (HAT) assay with PCAF; assay type: biochemical; conditions: 100 μM curcumin
PCAF, sequence (Q92831 whole entry, species assumed): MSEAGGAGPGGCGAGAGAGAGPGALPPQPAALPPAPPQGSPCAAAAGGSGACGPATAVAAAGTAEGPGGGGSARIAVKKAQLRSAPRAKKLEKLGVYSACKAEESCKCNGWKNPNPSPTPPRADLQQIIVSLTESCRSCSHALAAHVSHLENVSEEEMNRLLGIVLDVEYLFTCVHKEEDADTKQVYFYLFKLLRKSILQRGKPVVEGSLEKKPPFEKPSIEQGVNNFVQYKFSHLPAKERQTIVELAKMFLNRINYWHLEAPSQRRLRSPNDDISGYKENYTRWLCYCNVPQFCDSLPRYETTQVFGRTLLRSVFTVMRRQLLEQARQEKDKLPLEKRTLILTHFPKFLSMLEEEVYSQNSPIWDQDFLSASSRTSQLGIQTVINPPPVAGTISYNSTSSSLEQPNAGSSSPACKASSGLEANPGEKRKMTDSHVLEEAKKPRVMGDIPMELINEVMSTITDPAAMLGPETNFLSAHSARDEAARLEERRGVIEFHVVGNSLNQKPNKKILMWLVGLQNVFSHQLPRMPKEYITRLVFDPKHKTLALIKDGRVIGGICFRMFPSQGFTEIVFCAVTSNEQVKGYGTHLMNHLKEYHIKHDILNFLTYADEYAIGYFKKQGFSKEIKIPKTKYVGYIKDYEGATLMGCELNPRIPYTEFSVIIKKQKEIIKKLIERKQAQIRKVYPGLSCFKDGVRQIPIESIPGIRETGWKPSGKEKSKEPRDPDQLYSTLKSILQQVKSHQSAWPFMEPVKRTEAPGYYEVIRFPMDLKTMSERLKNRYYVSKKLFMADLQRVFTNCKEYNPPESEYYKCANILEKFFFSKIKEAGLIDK
Method: as §5

[9] = HeLa cells, TSA and sodium butyrate, with versus without curcumin (lane 5 versus 6)

## COc1cc(/C=C/C(=O)CC(=O)/C=C/c2ccc(O)c(OC)c2)ccc1O [curcumin]
[1]; 100 μM
  repression of p300 HAT activity dependent chromatin transcription: ≤ 3 fold
[1]; 300 μM
  repression of p300 HAT activity dependent chromatin transcription: ≤ 8 fold
[2]; 293 T cells transfected with p53 and p300, 100 μM curcumin
  p300-mediated acetylation of p53: completely inhibits
[2]; 293 T cells transfected with p300 alone, 100 μM curcumin
  acetylation status of the endogenous p53: not altered
SupT1 cells
  cytotoxicity (viable cells, trypan blue exclusion): not cytotoxic
HeLa cells
  apoptosis (nuclear fragmentation): induces the apoptosis
[3]
  methylation of core histones by HeLa nuclear extract (NE): no difference
[4]
  histone methylation by G9a: remains same
p300
  Kcat of p300 HAT activity: decreased
  Km of p300 HAT activity: decreased
  Vmax of p300 HAT activity: decreased
CBP
  inhibition of CBP HAT activity: potent and specific inhibitor
[5]
  acetylation of Tat by p300 in vitro: strongly inhibits
[6]
  transcription from the DNA template: not affected
[7]; highest concentration of curcumin
  number of syncytia: no syncytia were seen
[7]; increasing concentration of curcumin
  number of syncytia: dose-dependent reduction
[8]; HeLa cells hyperacetylated with TSA and sodium butyrate, 100 μM curcumin
  acetylation of histones (AUT gel): inhibited
[8]; HeLa cells, 75 and 100 μM curcumin, 24 hours
  unacetylated form of histone H4 and H2B (AUT gel): modestly increased
[8]; [9]
  inhibition of H3 acetylation (western blotting): 6 fold
  inhibition of H4 acetylation (western blotting): 10 fold
PCAF
  PCAF HAT activity: no change
